Data on three molecules can be found in patent publication US11399542B2, “Pesticidally active heterocyclic derivatives with sulfur containing substituents” (SYNGENTA PARTICIPATIONS AG, priority 2017, dated 2022).

What all share (type): in vivo
Test [1] relates to Spodoptera littoralis (Egyptian Cotton Leaf Worm). The test can be described thus: Example B2: Activity against Spodoptera littoralis, systemic via lettuce roots in agar. The note with it: 144 h, test rate 12.5 ppm, lettuce root uptake, 6 days after infestation, read-out: effect in at least one of the three categories (mortality, anti-feeding, or growth inhibition). The text has this:
Test compounds were applied by pipette from 10′000 ppm DMSO stock solutions into 24-well plates and mixed with agar. Lettuce seeds were placed onto the agar and the multi well plate was closed by another plate which contained also agar. After 7 days the compound was absorbed by the roots and the lettuce grew into the lid plate. The lettuce leaves were then cut off into the lid plate. Spodoptera eggs were pipetted through a plastic stencil onto a humid gel blotting paper and the lid plate was closed with it. The samples were assessed for mortality, anti-feedant effect and growth inhibition in comparison to untreated samples 6 days after infestation.

The test system of test [2] is Bemisia tabaci (Cotton White Fly). The test can be described thus: Example B7: Activity against Bemisia tabaci, sprayed cotton leaf discs. The note with it: foliar, 144 h, application rate 200 ppm, adult white flies on cotton leaf discs, 6 days after incubation. The method, then: Cotton leaf discs were placed on agar in 24-well microtiter plates and sprayed with aqueous test solutions prepared from 10′000 ppm DMSO stock solutions. After drying the leaf discs were infested with adult white flies. The samples were checked for mortality 6 days after incubation.

The subject of test [3] is Spodoptera littoralis (Egyptian Cotton Leaf Worm). The test can be described thus: Example B1: Activity against Spodoptera littoralis, sprayed cotton leaf discs. Particulars: foliar, 72 h, application rate 200 ppm, L1 larvae on cotton leaf discs, 3 days after infestation, read-out: control (at least one of mortality, anti-feedant effect, growth inhibition). As for the experimental part: Cotton leaf discs were placed onto agar in 24-well microtiter plates and sprayed with aqueous test solutions prepared from 10′000 ppm DMSO stock solutions. After drying the leaf discs were infested with five L1 larvae. The samples were assessed for mortality, anti-feeding effect, and growth inhibition in comparison to untreated samples 3 days after infestation. Control of Spodoptera littoralis by a test sample is given when at least one of the categories mortality, anti-feedant effect, and growth inhibition is higher than the untreated sample.

Test [4] concerns Euschistus heros (Neotropical Brown Stink Bug). The test can be described thus: Example B9: Activity against Euschistus heros, sprayed soybean leaf. Particulars: 120 h, application rate 200 ppm, N2 nymphs on soybean leaf, 5 days after infestation, read-out: effect in at least one of the two categories (mortality or growth inhibition). As for the experimental part:
Soybean leaf on agar in 24-well microtiter plates were sprayed with aqueous test solutions prepared from 10′000 ppm DMSO stock solutions. After drying the leaf were infested with N2 nymphs. The samples were assessed for mortality and growth inhibition in comparison to untreated samples 5 days after infestation.

For test [5], the system named is Aedes aegypti (Yellow Fever Mosquito). Nature of the test: Example B11: Activity against Aedes aegypti, dry deposit in tissue culture plates. The note with it: 200 ppm in ethanol; adult females; after 48 h and/or 24 h. As for the experimental part: Test solutions, at an application rate of 200 ppm in ethanol, were applied to 12 well tissue culture plates. Once the deposits were dry, five, two to five day old adult female Aedes aegypti were added to each well, and sustained with a 10% sucrose solution in a cotton wool plug. Assessment of knockdown was made one hour after introduction, and mortality was assessed at 24 and 48 hours after introduction.

Test [6] deals with Myzus persicae (Green Peach Aphid). Nature of the test: Example B5: Activity against Myzus persicae, sprayed sunflower leaf discs. The note with it: foliar, 144 h, application rate 200 ppm, mixed-age aphids on sunflower leaf discs, 6 days after infestation. The method, then: Sunflower leaf discs were placed on agar in a 24-well microtiter plate and sprayed with aqueous test solutions prepared from 10′000 ppm DMSO stock solutions. After drying, the leaf discs were infested with an aphid population of mixed ages. The samples were assessed for mortality 6 days after infestation.

Test [7] relates to Diabrotica balteata (Corn Root Worm). Nature of the test: Example B4: Activity against Diabrotica balteata, sprayed maize sprouts. The note with it: 96 h, application rate 200 ppm, L2 larvae on maize sprouts, 4 days after infestation, read-out: effect in at least one of the two categories (mortality or growth inhibition). As for the experimental part: Maize sprouts placed onto an agar layer in 24-well microtiter plates were treated with aqueous test solutions prepared from 10′000 ppm DMSO stock solutions by spraying. After drying, the plates were infested with L2 larvae (6 to 10 per well). The samples were assessed for mortality and growth inhibition in comparison to untreated samples 4 days after infestation.

Test [8] relates to Myzus persicae (Green Peach Aphid). The test can be described thus: Example B6: Activity against Myzus persicae, systemic via roots of pea seedlings. The note with it: 144 h, test rate 24 ppm, pea seedling roots in test solution, 6 days. The method, then: Roots of pea seedlings infested with an aphid population of mixed ages were placed directly in the aqueous test solutions prepared from 10′000 DMSO stock solutions. The samples were assessed for mortality 6 days after placing seedlings in test solutions.

Test [9] deals with Plutella xylostella (Diamond Back Moth). The test can be described thus: Example B3: Activity against Plutella xylostella, artificial diet, L2 larvae. Particulars: 120 h, application rate 200 ppm, L2 larvae on artificial diet, 5 days after infestation, read-out: effect in at least one of the two categories (mortality or growth inhibition). The method, then:
24-well microtiter plates with artificial diet were treated with aqueous test solutions prepared from 10′000 ppm DMSO stock solutions by pipetting. After drying, the plates were infested with L2 larvae (10 to 15 per well). The samples were assessed for mortality and growth inhibition in comparison to untreated samples 5 days after infestation.

Test [10] has as its system Frankliniella occidentalis (Western Flower Thrips). The test can be described thus: Example B8: Activity against Frankliniella occidentalis, sprayed sunflower leaf discs. Particulars: foliar, 168 h, application rate 200 ppm, mixed ages on sunflower leaf discs, 7 days after infestation. The method, then:
Sunflower leaf discs were placed on agar in 24-well microtiter plates and sprayed with aqueous test solutions prepared from […] stock solutions. After drying the leaf discs were infested with a Frankliniella population of mixed ages. The samples were assessed for mortality 7 days after infestation.

For test [11], the system named is Tetranychus urticae (Two-Spotted Spider Mite). The test can be described thus: Example B10: Activity against Tetranychus urticae, sprayed bean leaf discs. The note with it: foliar, 192 h. The method, then:
Bean leaf discs on agar in 24-well microtiter plates were sprayed with aqueous test solutions prepared from 10′000 ppm DMSO stock solutions. After drying the leaf discs were infested with a mite population of mixed ages. The samples were assessed for mortality on mixed population (mobile stages) 8 days after infestation.

Turning to `CCS(=O)(=O)c1cc2c(cc1-c1nc3cc(C(F)(F)F)cnc3n1C)n(C)c(=O)n2C` [Compound P3, 5-ethylsulfonyl-1,3-dimethyl-6-[3-methyl-6-(trifluoromethyl)imidazo[4,5-b]pyridin-2-yl]benzimidazol-2-one], the percent effect (mortality, anti-feeding or growth inhibition) at 12.5 ppm in test [1] is at least 80%. In addition, the mortality at 200 ppm in test [2], in test [6] and in test [10] was at least 80% in each case. The percent control (mortality, anti-feedant effect or growth inhibition) at 200 ppm in test [3] is at least 80%. In addition, the percent effect (mortality or growth inhibition) at 200 ppm in [4], in [7] and in test [9] was at least 80% each time. Moreover, the “control of Aedes aegypti” value in test [5] is “at least 80%”. For the same molecule, the mortality – broadly, the percentage killed – at 24 ppm in test [8] is at least 80%.
Consider `CCn1c(=O)n(C)c2cc(-c3nc4cc(C(F)(F)F)cnc4n3C)c(S(=O)(=O)CC)cc21` [Compound P5, 1-ethyl-6-ethylsulfonyl-3-methyl-5-[3-methyl-6-(trifluoromethyl)imidazo[4,5-b]pyridin-2-yl]benzimidazol-2-one], for which the percent effect (mortality, anti-feeding or growth inhibition) at 12.5 ppm in [1] was at least 80%. Also, the mortality at 200 ppm in test [2], in [6] and in [10] was at least 80% each time. For the same molecule, the percent control (mortality, anti-feedant effect or growth inhibition) at 200 ppm in [3] was at least 80%. Further, the percent effect (mortality or growth inhibition) at 200 ppm in test [4], in test [7] and in [9] was at least 80% each time. The molecule also returned a mortality at 24 ppm in test [8] of at least 80%.
Turning to `CCn1c(=O)n(C)c2cc(S(=O)(=O)CC)c(-c3nc4cc(C(F)(F)F)cnc4n3C)cc21` [Compound P6, 1-ethyl-5-ethylsulfonyl-3-methyl-6-[3-methyl-6-(trifluoromethyl)imidazo[4,5-b]pyridin-2-yl]benzimidazol-2-one], the mortality at 200 ppm in test [2], in test [11] and in [6] was at least 80% each time. In addition, the percent control (mortality, anti-feedant effect or growth inhibition) at 200 ppm in test [3] was at least 80%. For the same molecule, the percent effect (mortality or growth inhibition) at 200 ppm in test [4], in test [7] and in test [9] was at least 80% in each case. In test [8], this molecule displayed a mortality at 24 ppm of at least 80%.
